Reference: patent US20060252814A1, “Formulation comprising a betablocker and optionally a cholestrol-lowering agent” (AstraZeneca AB, priority 2000, published 2006)

Experiments:
[1] = system: common carotid artery intima-media thickness in asymptomatic subjects with a carotid plaque; assay: Carotid ultrasound, change in mean intima-media thickness (IMTmean) in the common carotid artery, 36 months double-blind placebo-controlled trial; assay type: in vivo, human; details: for Common carotid IMTmean, Δ 18 months to baseline (± SD) / Common carotid IMTmean, Δ 36 months to baseline (± SD): mean change; for Common carotid IMTmean, 18 months (± SD): mean value at 18 months follow-up, metoprolol 25 mg o.d. / fluvastatin 40 mg o.d., factorial groups; for Common carotid IMTmean, 36 months (± SD): mean value at 36 months follow-up; for Common carotid IMTmean, Δ between groups at 36 months (95% CI): versus placebo
Source text: (§1) The study population consisted of asymptomatic men and women, aged 49 to 70 years, with a plaque in the right carotid artery. A random 50% of those who entered the study were invited to take part in a study on the epidemiology of carotid artery disease. 1548 subjects came to the enrolment examination (visit one) including medical history, physical examination, laboratory measurements and a two-dimensional B-mode ultrasound of the right carotid artery. Subjects with a qualifying lesion in the right carotid artery, and who had no contraindications to the study protocol were invited to take part. In all, 793 subjects were eligible for randomization. All participants provided written informed consent Major exclusion criteria were history of myocardial infarction, angina pectoris or stroke within the preceding three months, history of surgical intervention in the right carotid artery, regular use of beta-blockers or stating, blood pressure above 160 systolic or 95 mm Hg diastolic, hypercholesterolemia (>8.0 mmol/L), hyperglycemia requiring or suspected to require insulin treatment, and conditions which in the opinion of the investigator rendered the subject unsuitable for the trial. […] Death and incidence of major cardiovascular endpoints were monitored. […] Throughout the trial an Acuson 128 […] (Acuson, Mountain View, Calif.) with a 7 MHz transducer was used. The examination procedure and image analysis, as described elsewhere ([…] et al., Clin Physiol, 11:565-577, 1991; […] et al., Stroke, 28:2195-2200, 1997) was performed by specially trained sonographers certified upon completion of an extensive educational program (Berglund, et al., J Intern Med, 236:581-586, 1994). In brief, the right carotid bifurcation was scanned within a pre-defined window comprising three centimeters of the distal common carotid artery, the bifurcation and one centimeter of the internal and external carotid arteries, respectively, for the presence of plaques, defined as focal intima-media thickenings above 1.2 mm. Thickness of the intima-media complex was measured in the far wall according to the leading edge principle, using a specially designed computer-assisted image analyzing system based on automated detection of the echo structures, but with the option to make manual corrections by the operator. Each image was analyzed without knowledge of the subjects' randomization group. From previous experience (Furberg et al., Circulation, 90:1679-1687, 1994) it was anticipated that the annual carotid artery […] progression rate in the placebo group would be approximately 15 μm per year with a standard deviation of 30 μm. […] The primary effect variables, change in […], and […] Bulb, was analyzed in a linear model with change in IMT as dependent variable and with treatment as a factor. Baseline IMTs and time between measurements were included in the model as covariates.

[2] = system: carotid bulb intima-media thickness in asymptomatic subjects with a carotid plaque; assay: Carotid ultrasound, change in maximum intima-media thickness (IMTmax) in the carotid bulb (bifurcation), 36 months double-blind placebo-controlled trial; assay type: in vivo, human; details: for Bifurcation carotid IMTmean, Δ 18 months to baseline (± SD) / Bifurcation carotid IMTmean, Δ 36 months to baseline (± SD): mean change; for Bifurcation carotid IMTmean, 18 months (± SD): mean value at 18 months follow-up; for Bifurcation carotid IMTmean, 36 months (± SD): mean value at 36 months follow-up; for Bifurcation carotid IMTmean, Δ between groups at 36 months (95% CI): versus placebo
Source text: as §1

[3] = system: cardiovascular (CVD) events in asymptomatic subjects with a carotid plaque; assay: Incidence of cardiovascular events during follow-up; assay type: in vivo, human; details: metoprolol versus 13 cases placebo, p=0.055; fluvastatin versus 11 cases placebo, p=0.350
Source text: Death and incidence of major cardiovascular endpoints were monitored.

[4] = human, in vivo, 36 months
Description: A large scale clinical trial was designed to investigate the effect of low dose betablocker metoprolol on the progression of carotid IMT versus placebo and clinical outcome measures during 36 months double-blind treatment in asymptomatic subjects with a carotid plaque. The study was a randomized, double blind, parallel group, placebo-controlled, single-center study.
The randomization procedure was performed by using a computer generated randomization scheme. Participants were, according to a factorial design, randomly assigned to one of four drug combination groups: placebo/placebo, metoprolol (25 mg o.d)/placebo, fluvastatin (40 mg o.d.)/placebo or metoprolol (25 mg o.d.)/fluvastatin (40 mg o.d.). The placebo was manufactured to exactly resemble the metoprolol CR/XL tablets (AstraZeneca AB, Mölndal, Sweden), and fluvastatin (Novartis Ltd, Basel, Switzerland) capsules, respectively.
Safety and tolerability pattern during treatment with fluvastatin or metoprolol, was evaluated by comparing adverse events and laboratory findings to placebo. Death and incidence of major cardiovascular endpoints were monitored.
Every participant was seen four times during the first year (after one, three, six and twelve months) and every 6 months thereafter. Weight was obtained every six months and a fasting lipid profile (total cholesterol, LDL-lipoprotein, HDL-lipoprotein and triglycerides) was determined every year. Liver transaminases (AST, ALT) and creatine kinase (CK) were obtained at every visit during the first year and then every year thereafter. AST or ALT values ≧3 times, and CK values ≧10 times the upper limit of normal was considered elevated during the study. […] Subjects with high serum cholesterol or triglycerides were advised to a low-fat diet and if evidence of persistent high cholesterol values such subjects were referred to an independent specialist of lipid disorders without knowledge of the subjects randomization assignment. […]

[5] = Metabolic and physiological effects of treatment in the clinical trial; assay type: in vivo, human
Description: A large scale clinical trial was designed to investigate the effect of low dose betablocker metoprolol on the progression of carotid IMT versus placebo and clinical outcome measures during 36 months double-blind treatment in asymptomatic subjects with a carotid plaque. The study was a randomized, double blind, parallel group, placebo-controlled, single-center study. The randomization procedure was performed by using a computer generated randomization scheme. Participants were, according to a factorial design, randomly assigned to one of four drug combination groups: placebo/placebo, metoprolol (25 mg o.d)/placebo, fluvastatin (40 mg o.d.)/placebo or metoprolol (25 mg o.d.)/fluvastatin (40 mg o.d.). The placebo was manufactured to exactly resemble the metoprolol CR/XL tablets (AstraZeneca AB, […] , Sweden), and fluvastatin (Novartis Ltd, Basel, Switzerland) capsules, respectively. Every participant was seen four times during the first year (after one, three, six and twelve months) and every 6 months thereafter. Weight was obtained every six months and a fasting lipid profile (total cholesterol, LDL-lipoprotein, HDL-lipoprotein and triglycerides) was determined every year. Liver transaminases (AST, ALT) and creatine kinase (CK) were obtained at every visit during the first year and then every year thereafter. AST or ALT values ≧3 times, and CK values ≧10 times the upper limit of normal was considered elevated during the study. Carotid ultrasound investigation was performed at baseline and after 18 and 36 months treatment.

[6] = in comparison to the placebo group

| Structure (SMILES) | Common carotid IMTmean, Δ 18 months to baseline (± SD) [1] [μm] | Common carotid IMTmean, Δ 36 months to baseline (± SD) [1] [μm] | Common carotid IMTmean, 18 months (± SD) [1] [μm] | Common carotid IMTmean, 36 months (± SD) [1] [μm] | Common carotid IMTmean, Δ between groups at 36 months (95% CI) [1] | Bifurcation carotid IMTmean, Δ 18 months to baseline (± SD) [2] [μm] | Bifurcation carotid IMTmean, Δ 36 months to baseline (± SD) [2] [μm] | Bifurcation carotid IMTmean, 18 months (± SD) [2] [μm] | Bifurcation carotid IMTmean, 36 months (± SD) [2] [μm] | Bifurcation carotid IMTmean, Δ between groups at 36 months (95% CI) [2] | CVD events during follow-up [3] [cases] | Permanent withdrawal from randomized treatment [4] [%] | other results |
| --- | --- | --- | --- | --- | --- | --- | --- | --- | --- | --- | --- | --- | --- |
| CC(C)n1c(/C=C/C(O)CC(O)CC(=O)O)c(-c2ccc(F)cc2)c2ccccc21 (centres unmarked) [Fluvastatin, fluvastatin] | −5 ± 11 | 11 ± 11 | 890 ± 196 | 905 ± 205 | −25 (−44 to −7) μm | 63 ± 334 | 170 ± 374 | 1965 ± 554 | 2095 ± 652 | −41 (−102 to 19) μm | 7 | 21 | IMTmean CCA progression, mean difference of yearly change between groups ([1]; compared with placebo after 36 months of treatment, 95% CI −15 to −3, p=0.002): −9 μm; frequency of transiently high liver enzymes ([4]; female): 10.2% |
| COCCc1ccc(OCC(O)CNC(C)C)cc1 (centres unmarked) [Metoprolol, metoprolol] | −5 ± 12 | 22 ± 13 | 908 ± 205 | 934 ± 220 | −2 (−20 to 17) μm | 23 ± 325 | 154 ± 411 | 1937 ± 572 | 2003 ± 624 | −73 (−133 to −13) μm | 5 | 15 | reduced the rate of progression of IMTmean CCA compared with placebo ([1]; after 36 months of treatment, result in words): not; carotid IMTmaxBulb progression, mean difference of yearly change between groups ([2]; after 18 months of treatment, 95% CI −94 to −23, p=0.004): −58 μm; carotid IMTmaxBulb progression, mean difference of yearly change between groups ([2]; after 36 months, subgroup with serum cholesterol at baseline, 95% CI −87 to −19, p=0.001): −53 μm; carotid IMTmaxBulb progression, mean difference of yearly change between groups ([2]; compared with placebo after 36 months of treatment, 95% CI −44 to −3, p=0.014): −23 μm; effect on other metabolic variables ([5]; compared to the placebo group): no effect; change of blood pressure [5, 6]: not significantly changed; change of lumen diameter [5, 6]: not significantly changed; decrease of mean heart rate in comparison to the placebo group ([5]; metoprolol 25 mg o.d.): 2.5 beats per min; increase of serum triglycerides compared to the placebo group ([5]; metoprolol 25 mg o.d.): 0.14 mmol/L |
